The subject of one assay is Rat cortical neurons. Nature of the assay: Neurite Outgrowth in Primary Neuronal Cultures Assay (Procedure B). The class given is cell-based. The arrangement: key: A: Statistically significant mean increase as a percent of DMSO control at 10 μM or less; B: No statistically significant mean increase as a percent of DMSO control at 10 μM or less. Conditions: 72 h, percent of DMSO control at 10 μM or less. An excerpt:
Neurite Outgrowth in Primary Neuronal Cultures Assay (Procedure B). Changes in the pattern of neurite outgrowth have been implicated in psychiatric and neurodegenerative disorders as well as traumatic injuries. The discovery of new compounds that can positively affect neuritogenesis are important for developing new therapeutics for neurological diseases. Measurement of neurite outgrowth of rat cortical neurons using an automated image-based assay was used to determine the neuroplastic effects of the compounds of the present invention. The neurite outgrowth assay was performed at Neurofit SAS (France) as described below.
Pregnant Wistar rats (Janvier; France) were used for the study. They were delivered 6 days before their use. Upon arrival at Neurofit animal facility, they were housed one per cage and maintained in a room with controlled temperature (21-22° C.) and a reversed light-dark cycle (12 h/12 h; lights on: 17:30-05:30; lights off: 05:30-17:30) with food and water available ad libitum.
Female Wistar rats of 17 days gestation were killed by cervical dislocation and the fetuses were removed from the uterus. Their brains were placed in ice-cold medium of Leibovitz (L15, Gibco, Fisher bioblock, France). Cortices were dissected and meninges were carefully removed. The cortical neurons were dissociated by trypsinization for 30 min at 37° C. (trypsin-EDTA, Gibco) in presence of 0.1 mg/ml DNAse I (Roche, France). The reaction was stopped by addition of Dulbecco's Modified Eagle Medium (DMEM; Gibco) with 10% of fetal bovine serum (FBS; Gibco). The suspension was triturated with a 10-ml pipette and using a needle syringe 21G and centrifuged at 350×g for 10 min at room temperature. The pellet of dissociated cells was resuspended in a medium consisting of Neurobasal (Gibco) supplemented with 2% B27 supplement (Gibco), 0.5 mM L-Glutamine (Gibco), an antibiotic-antimicotic mixture. Viable cells were counted in a Neubauer cytometer using the trypan blue exclusion test (Sigma). Cells were seeded at a density of 10000 cells per well in 96-well plate (Costar) precoated with poly-L-lysine. Test compound at different concentrations were added to the cultures. Donepezil (positive control) was tested at 250 nM.
After 72 h (3 days) of plating, cultures were fixed with paraformaldehyde in PBS (4%, Sigma) for 30 min at 4° C. Then, cells were successively permeabilized with 0.1% Triton X100 for 30 min, saturated with PBS containing 3% of BSA and were incubated 1 h with anti-beta III tubulin antibody (Sigma) at 1/10 000 in PBS containing 0.5% of BSA. Cells were washed three times with PBS containing 0.5% of BSA, and they were incubated 1 h with goat anti-mouse antibody coupled with AF488 (Invitrogen A11001) diluted at 1/1000 in PBS containing 0.5% of BSA. Finally, nuclei were staining with DAPI 1 mg/ml at 1/1000 in PBS containing 0.5% of BSA. After rinsing with PBS, the plate was filmed and neurite networks were examined and analyzed using High-Content Screening (CellInsight, Thermo Scientific). The average number of neurites per neuron and the average total length of neurites per neuron were the main parameters analyzed. Analysis of data was performed using analysis of variance (ANOVA). The Fisher's Protected Least Significant Difference test was used for multiple comparisons. A p value<0.05 was considered significant. The software used is StatView 5.0 from SAS Institut.
In some embodiments, a compound of the present invention increases the pattern of neurite outgrowth. In some embodiments, a compound of the present invention increases neurite average length compared to a control. In some embodiments, a compound of the present invention increases neurite branch points compared to a control.

Assay [1] addresses T1, 5HT2A (Homo sapiens, UniProt P28223). Description: Serotonin 5-HT2A in vitro radioligand binding competition assay ([3H]-DOI). Also noted: purchased Epics Therapeutics S.A. (Belgium) FAST-0505B. Conditions: [3H]-DOI competition, membrane extracts; read-out: 5-HT2A Radioligand Binding Activity. Here is the method: Serotonin 5-HT2A In Vitro Radioligand Binding Competition Assay. The 5-HT2A radioligand binding competition assay was performed at Epics Therapeutics S.A. (Belgium, FAST-0505B) using conventional methods. Briefly, competition binding is performed in duplicate in the wells of a 96 well plate (Master Block, Greiner, 786201) containing binding buffer (optimized for each receptor), membrane extracts (amount of protein/well optimized for each receptor), radiotracer [^3H]-DOI (final concentration optimized for each receptor) and test compound. Nonspecific binding is determined by co-incubation with 200-fold excess of cold competitor. The samples are incubated in a final volume of 0.1 ml at a temperature and for a duration optimized for each receptor and then filtered over filter plates. Filters are washed six times with 0.5 ml of ice-cold washing buffer (optimized for each receptor) and 50 μl of Microscint 20 (Packard) are added in each well. The plates are incubated 15 min on an orbital shaker and then counted with a TopCount™ for 1 min/well.
(§1) The compounds provided herein were tested in the Serotonin 5-HT2A and 5-HT2C in vitro radioligand binding and cellular IPOne agonism assays. The binding and agonism functional potencies of several compound provided herein compounds (as indicated by their IC50s or EC50s) are shown in Table 11.

Assay [2] concerns the target T1, 5HT2A. Description: Serotonin 5-HT2A in vitro cellular IPOne agonism assay. The class given is cell-based. The arrangement: host or cells: CHO-K1. Conditions: CHO-K1 cells, IPOne HTRF; read-out: 5-HT2A IPOne Agonism Activity. Here is the method: Serotonin 5-HT2A In Vitro Cellular IPOne Agonism Assay. The 5-HT2A IPOne HTRF assay was performed at Epics Therapeutics S.A. (Belgium, FAST-0505I) using conventional methods. Briefly, CHO-K1 cells expressing human recombinant 5-HT2A receptor grown to mid-log phase in culture media without antibiotics were detached with PBS-EDTA, centrifuged, and resuspended in medium without antibiotics buffer. 20,000 cells are distributed in a 96 well plate and incubated overnight at 37° C. with 5% CO2.
For agonist testing, the medium is removed and 20 μl of assay buffer plus 20 μl of test compound or reference agonist are added in each well. The plate is incubated for 60 min. at 37° C. with 5% CO2.
After addition of the lysis buffer containing IP1-d2 and anti-IP1 cryptate detection reagents, plates are incubated 1-hour at room temperature, and fluorescence ratios are measured according to the manufacturer specification, with the HTRF kit.
as §1

The results in this text go back to patent publication US20230219969A1 (priority 2020, published 2023).

T1 sequence (P28223 whole entry): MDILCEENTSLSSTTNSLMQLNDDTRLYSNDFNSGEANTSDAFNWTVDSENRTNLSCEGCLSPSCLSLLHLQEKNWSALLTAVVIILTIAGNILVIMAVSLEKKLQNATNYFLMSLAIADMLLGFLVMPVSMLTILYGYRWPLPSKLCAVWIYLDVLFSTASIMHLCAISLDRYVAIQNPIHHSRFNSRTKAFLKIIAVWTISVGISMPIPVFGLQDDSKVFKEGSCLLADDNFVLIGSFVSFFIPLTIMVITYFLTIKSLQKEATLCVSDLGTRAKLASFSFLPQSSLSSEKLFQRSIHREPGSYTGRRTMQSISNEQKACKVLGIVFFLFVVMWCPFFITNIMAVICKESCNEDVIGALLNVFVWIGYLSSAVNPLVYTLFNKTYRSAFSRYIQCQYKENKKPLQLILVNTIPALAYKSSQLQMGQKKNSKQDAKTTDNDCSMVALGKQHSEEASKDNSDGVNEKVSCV

As for `COc1ccc2c(ccn2CC(C)(C)N(C)C)c1` [Example 1, 1-(5-methoxy-1H-indol-1-yl)-N,N,2-trimethylpropan-2-amine], in the assay with Rat cortical neurons, the “Increase in Neurite Length” value is reported as “A” and the “Increase in Neurite Number” value is given as “A”. The IC50 on 5HT2A [1] is more than 10 µM. Besides, the EC50 on 5HT2A [2] was more than 10 µM.
Turning to `COc1ccc2c(ccn2CC2(N(C)C)CC2)c1` [Example 2, 1-((5-methoxy-1H-indol-1-yl)methyl)-N,N-dimethylcyclopropan-1-amine], in the assay on Rat cortical neurons, the “Increase in Neurite Length” value is reported as “B” and the “Increase in Neurite Number” value was “B”. The IC50 at 5HT2A [1] was more than 10 µM. The EC50 at 5HT2A [2] was more than 10 µM.
`COc1ccc2c(c1)CCCN2CCN(C)C` [Example 9, 2-(6-methoxy-3,4-dihydroquinolin-1(2H)-yl)-N,N-dimethylethan-1-amine]: in the assay with Rat cortical neurons, the “Increase in Neurite Length” value is recorded as “B” and the “Increase in Neurite Number” value is recorded as “B”. Also, on 5HT2A [1], the IC50 lay in the range of 0.101 to 1 µM. In addition, the EC50 at 5HT2A [2] is more than 10 µM.
Consider `COc1ccc2c(ccn2[C@H]2C[C@@H](N(C)C)C2)c1` [Example 24, (1s,3s)-3-(5-methoxy-1H-indol-1-yl)-N,N-dimethylcyclobutan-1-amine], for which, in the assay on Rat cortical neurons, the “Increase in Neurite Length” value is recorded as “A” and the “Increase in Neurite Number” value is listed as “B”. For the same compound, the IC50 on 5HT2A [1] was more than 10 µM. At 5HT2A [2], the EC50 was more than 10 µM.
For `COc1ccc2c(ccn2[C@H]2C[C@H](N(C)C)C2)c1` [Example 25, (1r,3r)-3-(5-methoxy-1H-indol-1-yl)-N,N-dimethylcyclobutan-1-amine], in the assay on Rat cortical neurons, the “Increase in Neurite Length” value was “A” and the “Increase in Neurite Number” value is “B”. Moreover, the IC50 at 5HT2A [1] was more than 10 µM. For the same compound, the EC50 at 5HT2A [2] is more than 10 µM.
Regarding `C[C@H](Cn1ccc2cncnc21)N(C)C` [Example 27, (R)—N,N-dimethyl-1-(7H-pyrrolo[2,3-d]pyrimidin-7-yl)propan-2-amine], in the assay with Rat cortical neurons, the “Increase in Neurite Length” value was “A” and the “Increase in Neurite Number” value is “B”. The IC50 on 5HT2A [1] was more than 10 µM. Moreover, the EC50 on 5HT2A [2] was more than 10 µM.
With `COc1ccc2c(ccn2C[C@@H](C)N)n1` [Example 28, (R)-1-(5-methoxy-1H-pyrrolo[3,2-b]pyridin-1-yl)propan-2-amine], in the assay on Rat cortical neurons, the “Increase in Neurite Length” value was “A” and the “Increase in Neurite Number” value was “B”. Further, the IC50 at 5HT2A [1] is more than 10 µM. Also, the EC50 on 5HT2A [2] is more than 10 µM.
With `CN[C@H](C)Cn1ccc2nc(OC)ccc21` [Example 29, (R)-1-(5-methoxy-1H-pyrrolo[3,2-b]pyridin-1-yl)-N-methylpropan-2-amine], in the assay with Rat cortical neurons, the “Increase in Neurite Length” value is listed as “A” and the “Increase in Neurite Number” value is “B”. Further, at 5HT2A [1], the IC50 was more than 10 µM. At 5HT2A [2], the EC50 was more than 10 µM.
As for `COc1ccc2c(ccn2C[C@@H](C)N(C)C)n1` [Example 30, (R)-1-(5-methoxy-1H-pyrrolo[3,2-b]pyridin-1-yl)-N,N-dimethylpropan-2-amine], in the assay on Rat cortical neurons, the “Increase in Neurite Length” value is on record as “A” and the “Increase in Neurite Number” value is given as “A”. Moreover, the IC50 at 5HT2A [1] is more than 10 µM. On 5HT2A [2], the EC50 was more than 10 µM.
Consider `COc1cc2ccn(C[C@@H](C)N)c2cn1` [Example 31, (R)-1-(5-methoxy-1H-pyrrolo[2,3-c]pyridin-1-yl)propan-2-amine], for which, in the assay with Rat cortical neurons, the “Increase in Neurite Length” value is on record as “B” and the “Increase in Neurite Number” value is given as “B”. Also, the IC50 at 5HT2A [1] is 1 to 10 µM. For the same compound, the EC50 on 5HT2A [2] fell in the range of 1 to 10 µM.
As for `CN[C@H](C)Cn1ccc2cc(OC)ncc21` [Example 32, (R)-1-(5-methoxy-1H-pyrrolo[2,3-c]pyridin-1-yl)-N-methylpropan-2-amine], in the assay with Rat cortical neurons, the “Increase in Neurite Length” value is “B” and the “Increase in Neurite Number” value is “B”. Besides, the IC50 at 5HT2A [1] was more than 10 µM. Moreover, the EC50 on 5HT2A [2] was more than 10 µM.
Turning to `COc1cc2ccn(C[C@@H](C)N(C)C)c2cn1` [Example 33, (R)-1-(5-methoxy-1H-pyrrolo[2,3-c]pyridin-1-yl)-N,N-dimethylpropan-2-amine], in the assay on Rat cortical neurons, the “Increase in Neurite Length” value is reported as “A” and the “Increase in Neurite Number” value was “B”. Moreover, the IC50 at 5HT2A [1] was more than 10 µM. The EC50 on 5HT2A [2] was more than 10 µM.
